Assay results reported in patent US20250332173A1, “COMPOUNDS AND METHODS FOR MODULATING NUCLEIC ACID SPLICING” (REMIX THERAPEUTICS INC., priority 2021, published 2025).

Assays:
Type in all cases: cell-based, human
Target C [1] = experiment: RT-qPCR splicing assay panel, Target C canonical junction (CJ) mRNA; details: Homo sapiens; Table 5 panel; canonical junction qPCR; compound concentration having 50% response in CJ decrease; read-out: Target C IC50 (decrease in CJ mRNA levels)
Procedure, shortened: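 Exposure: 24 h, 37 °C, 11-point 3-fold dilutions from 10 uM final, DMSO at or below 0.25%, in A673 or K562 cells. Detection: cell-lysate RT-qPCR of canonical junction mRNA relative to GAPDH, GUSB or PPIA.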

Target C [2] = experiment: HiBiT protein abundance assay, Target C (Promega Nano-Glo HiBiT Lytic Detection System, knock-in K562 cell line); details: Homo sapiens, K562, 24 h, HiBiT K562 cell line, 24 hours, top dose 10 μM; read-out: Effect on protein abundance, Target C (IC50 category)
Procedure, shortened: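 HiBiT knock-in K562 cells (10,000/well) were treated for 24 h at 37 °C with a 10-point 3-fold dilution series, top final concentration 10 μM, DMSO ≤0.25%. Lytic HiBiT luminescence was read, normalized to unmodified K562 and DMSO-treated controls, and IC50 was interpolated from a four-parameter logistic fit.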

HTT = experiment: HiBiT protein abundance assay, HTT HiBiT K562 cell line; details: HiBiT K562 cell line, 24 hours, top dose 10 μM; read-out: Effect on protein abundance, HTT (IC50 category)
Procedure, shortened: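 Endogenous targets in K562 knock-in lines carried a HiBiT tag and were treated for 24 h at 37 °C with 10-point 3-fold dilutions (top 10 μM final, DMSO ≤0.25%). Abundance was read as lytic Nano-Glo HiBiT luminescence. IC50 came from a four-parameter logistic fit of normalized response.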

Structure (SMILES) | IC50 (Target C [1]) | IC50 (Target C [2]) | IC50 (HTT)
Cc1cc(-c2cc(F)c3c(=O)n(C4CCNC5(CC5)C4)ccc3c2)nc2cn(C)nc12 (stereo not drawn) [Compound 431] | 0.1 to 1 µM | < 0.1 µM | < 0.1 µM
Cc1cn2nc(-c3cc(F)c4c(=O)n(C5CCNC5)ccc4c3)cc(C)c2n1 (stereo in doubt) [Compound 392, (S)-6-(2,8-dimethylimidazo[1,2-b]pyridazin-6-yl)-8-fluoro-2-(pyrrolidin-3-yl)isoquinolin-1(2H)-one] | 1 to 10 µM | 1 to 10 µM | 1 to 10 µM
Cc1cn2cc(-c3cc(F)c4c(=O)n(C5CCNC6(CC6)C5)ccc4c3)ncc2n1 (stereo not drawn) [Compound 428, 8-fluoro-6-(2-methylimidazo[1,2-a]pyrazin-6-yl)-2-(4-azaspiro[2.5]octan-7-yl)isoquinolin-1(2H)-one] | 1 to 10 µM | 1 to 10 µM | 0.1 to 1 µM
Cn1cc2cc(-n3cnc4cc(C5=CC6CCC(C5)N6)ccc4c3=O)ccc2n1 (stereo not drawn) [Compound 160] | > 10 µM | > 10 µM | > 10 µM
Cc1cn2cc(-c3cc(N)c4c(=O)n(C5CCNCC5)cnc4c3)cc(C#N)c2n1 [Compound 364, 6-[5-amino-4-oxo-3-(piperidin-4-yl)quinazolin-7-yl]-2-methylimidazo[1,2-a]pyridine-8-carbonitrile] | > 10 µM | > 10 µM | > 10 µM
Cn1cc2cc(-c3cc(F)c4c(=O)n(C5CCNC6(CC6)C5)ccc4c3)c(O)cc2n1 (stereo not drawn) [Compound 414, 2-{4-azaspiro[2.5]octan-7-yl}-8-fluoro-6-(6-hydroxy-2-methylindazol-5-yl)isoquinolin-1-one] | > 10 µM | > 10 µM | 1 to 10 µM
Cc1cn2cc(-c3cc(F)c4c(=O)n(C5CCNC6(CC6)C5)ccc4c3)cc(Cl)c2n1 (stereo not drawn) [Compound 413, 2-{4-azaspiro[2.5]octan-7-yl}-6-{8-chloro-2-methylimidazo[1,2-a]pyridin-6-yl}-8-fluoroisoquinolin-1-one] | 0.1 to 1 µM | < 0.1 µM | < 0.1 µM
Cc1cn2cc(-c3cc(F)c4c(=O)n(C5CCOCC5)cnc4c3)cc(C#N)c2n1 [Compound 367, 6-[5-fluoro-3-(oxan-4-yl)-4-oxoquinazolin-7-yl]-2-methylimidazo[1,2-a]pyridine-8-carbonitrile] | 0.1 to 1 µM | 0.1 to 1 µM | 0.1 to 1 µM
Cc1cn2cc(-c3ccc4c(=O)n([C@@H]5CCNC5)cc(C)c4c3)cc(F)c2n1 [Compound 452, (R)-6-(8-fluoro-2-methylimidazo[1,2-a]pyridin-6-yl)-4-methyl-2-(pyrrolidin-3-yl)isoquinolin-1(2H)-one] | > 10 µM | > 10 µM | > 10 µM
Cc1cn2nc(-c3cc(Cl)c4c(=O)n(C5CCNCC5)ccc4c3)cc(C)c2n1 [Compound 390, 8-chloro-6-{2,8-dimethylimidazo[1,2-b]pyridazin-6-yl}-2-(piperidin-4-yl)isoquinolin-1-one; trifluoroacetaldehyde] | < 0.1 µM | < 0.1 µM | < 0.1 µM
Cc1cn2nc(-c3cc(C)c4c(=O)n(C5CCNC6(CC6)C5)ccc4c3)cc(C)c2n1 (stereo in doubt) [Compound 397, (S)-6-(2,8-dimethylimidazo[1,2-b]pyridazin-6-yl)-8-methyl-2-(4-azaspiro[2.5]octan-7-yl)isoquinolin-1(2H)-one] | 0.1 to 1 µM | < 0.1 µM | < 0.1 µM
Cc1nc2c(F)cc(-c3cc(F)c4c(=O)n(C5CCNC6(CC6)C5)ccc4c3)cc2o1 (stereo not drawn) [Compound 417, 2-{4-azaspiro[2.5]octan-7-yl}-8-fluoro-6-(4-fluoro-2-methyl-1,3-benzoxazol-6-yl)isoquinolin-1-one] | 0.1 to 1 µM | < 0.1 µM | < 0.1 µM
CN1CCC(Nc2ccc3c(=O)n(-c4ccc5nn(C)cc5c4)cnc3c2)CC1 [Compound 163] | > 10 µM | > 10 µM | > 10 µM
Cc1cn2nc(-c3cc(O)c4c(=O)n(C5CCNCC5)ccc4c3)cc(C)c2n1 [Compound 391, 6-(2,8-dimethylimidazo[1,2-b]pyridazin-6-yl)-8-hydroxy-2-(piperidin-4-yl)isoquinolin-1(2H)-one] | < 0.1 µM | < 0.1 µM | < 0.1 µM
Cc1cn2nc(-c3cc(C#N)c4c(=O)n(C5CCNC6(CC6)C5)ccc4c3)cc(C)c2n1 (stereo not drawn) [Compound 387] | 0.1 to 1 µM | < 0.1 µM | < 0.1 µM
Cc1cn2nc(-c3cc(C)c4c(=O)n(C5CCNC6(CC6)C5)ccc4c3)cc(C)c2n1 (stereo in doubt) [Compound 398, (R)-6-(2,8-dimethylimidazo[1,2-b]pyridazin-6-yl)-8-methyl-2-(4-azaspiro[2.5]octan-7-yl)isoquinolin-1(2H)-one] | < 0.1 µM | < 0.1 µM | < 0.1 µM
Cc1cn2cc(-c3ccc4c(=O)n([C@H]5CCCNC5)ccc4c3)cc(F)c2n1 [Compound 404, 6-{8-fluoro-2-methylimidazo[1,2-a]pyridin-6-yl}-2-[(3S)-piperidin-3-yl]isoquinolin-1-one] | > 10 µM | 1 to 10 µM | 1 to 10 µM
Cc1cn2nc(-c3ccc4c(=O)n([C@H]5CCNC6(CC6)C5)ccc4c3)cc(C)c2n1 [Compound 445] | < 0.1 µM | < 0.1 µM | < 0.1 µM
Cc1cn2cc(-c3ccc4c(=O)n(C5CCNC6(CC6)C5)ncc4c3)cc(Cl)c2n1 (stereo not drawn) [Compound 510] | 1 to 10 µM | 1 to 10 µM | 0.1 to 1 µM
Cn1cc2nc(-c3ccc4c(=O)n(C5CCNC6(CC6)C5)ncc4c3)ccc2n1 (stereo not drawn) [Compound 511] | 1 to 10 µM | 0.1 to 1 µM | 0.1 to 1 µM
Cc1cn2nc(-c3ccc4c(=O)n([C@@H]5CCNC[C@H]5F)ncc4c3)cc(C)c2n1 [Compound 379] | 1 to 10 µM | 0.1 to 1 µM | 0.1 to 1 µM
Cc1cn2nc(-c3cc(F)c4c(=O)n([C@@H]5CCNC6(CC6)C5)ncc4c3)cc(C)c2n1 [Compound 446] | < 0.1 µM | < 0.1 µM | < 0.1 µM
Cc1cn2cc(-c3ccc4c(=O)n(C5CCNCC5)cc(C)c4c3)cc(F)c2n1 [Compound 440, 6-{8-fluoro-2-methylimidazo[1,2-a]pyridin-6-yl}-4-methyl-2-(piperidin-4-yl)isoquinolin-1-one] | 0.1 to 1 µM | 0.1 to 1 µM | 0.1 to 1 µM
